In US6949571B2, “1,2-dihydropyridine compounds, process for preparation of the same and use thereof” (Eisai Co., Ltd., priority 2000, dated 2005):
pIC50: −log10 of the molar value.

What follows are compounds tested on AMPA receptor. Details: Table 1; primary culture of rat embryo cerebral cortex nerve cells, 2 μM AMPA, 1 μM MK-801.
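Note: primary rat embryonic cortical neurons grown on an astrocyte layer in 96-well plates, used after at least 8 to 10 days in culture, Fura2-AM fluorescence ratio at 340/380 nm excitation.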

Structure (SMILES) | pIC50
COc1cncc(-n2cc(-c3ccccn3)cc(-c3ccccc3C#N)c2=O)c1 [Example 118, 3-(2-Cyanophenyl)-5-(2-pyridyl)-1-(3-methoxypyridin-5-yl)-1,2-dihydropyridin-2-one] | 7.00
N#CCc1cccc(-n2cc(-c3ccccn3)cc(-c3ccccc3C#N)c2=O)c1 [Example 22, 3-(2-Cyanophenyl)-5-(2-pyridyl)-1-(3-cyanomethylphenyl)-1,2-dihydropyridin-2-one] | 7.22
CN1CCN(c2ccc(-n3cc(-c4ccccn4)cc(-c4ccccc4C#N)c3=O)cn2)CC1 [Example 121, 3-(2-Cyanophenyl)-5-(2-pyridyl)-1-[2-(4-methylpiperazin-1-yl)-pyridin-5-yl]-1,2-dihydropyridin-2-one] | 6.22
N#Cc1ccccc1-c1cc(-c2ccoc2)cn(-c2ccccc2)c1=O [Example 48] | 7.40
Cc1cccc(-n2cc(-c3ccccn3)cc(-c3ccccc3C#N)c2=O)c1 [Example 103, 3-(2-Cyanophenyl)-5-(2-pyridyl)-1-(3-tolyl)-1,2-dihydropyridin-2-one] | 7.52
N#Cc1ccc(-c2cc(-c3ccccn3)cn(-c3ccccc3)c2=O)cc1 [Example 64, 3-(4-Cyanophenyl)-5-(2-pyridyl)-1-phenyl-1,2-dihydropyridin-2-one] | 5.55
O=c1c(-c2ccccc2Cl)cc(-c2ccccn2)cn1-c1ccc(F)cc1 [Example 99, 3-(2-Chlorophenyl)-5-(2-pyridyl)-1-(4-fluorophenyl)-1,2-dihydropyridin-2-one] | 7.00
N#Cc1ccccc1-c1cc(-c2ccccn2)cn(-c2ccncc2)c1=O [Example 117, 3-(2-Cyanophenyl)-5-(2-pyridyl)-1-(4-pyridyl)-1,2-dihydropyridin-2-one] | 6.40
Cc1ccc(-n2cc(-c3ccccn3)cc(-c3ccccc3C#N)c2=O)cc1 [Example 107, 3-(2-Cyanophenyl)-5-(2-pyridyl)-1-(4-tolyl)-1,2-dihydropyridin-2-one] | 7.15
COc1ccncc1-c1cc(-c2ccccn2)cn(-c2ccccc2)c1=O [Example 77, 3-(4-Methoxy-3-pyridyl)-5-(2-pyridyl)-1-phenyl-1,2-dihydropyridin-2-one] | 7.70
N#Cc1ccccc1-c1cc(-c2ccccn2)cn(-c2ccc(OCCO)nc2)c1=O [Example 119, 3-(2-Cyanophenyl)-5-(2-pyridyl)-1-(2-hydroxyethoxypyridin-5-yl)-1,2-dihydropyridin-2-one] | 5.77
O=c1c(-c2cccc(Cl)c2)cc(-c2ccccn2)cn1-c1ccccc1 [Example 65, 3-(3-Chlorophenyl)-5-(2-pyridyl)-1-phenyl-1,2-dihydropyridin-2-one] | 6.22
N#Cc1ccccc1-c1cc(-c2ccccn2)cn(-c2cncc(COCc3ccccc3)c2)c1=O [Example 115, 3-(2-Cyanophenyl)-5-(2-pyridyl)-1-(3-benzyloxymethylpyridin-5-yl)-1,2-dihydropyridin-2-one] | 7.22

Same assay, conditions: Table 2; suppression of AMPA-induced calcium influx into nerve cells

pIC50 | Structure (SMILES)
5.57 | COc1cccc(-c2cc(-c3ccccn3)cn(-c3ccccc3)c2=O)n1 [Example 260, 3-(2-Methoxypyridin-6-yl)-1-phenyl-5-(2-pyridyl)-1,2-dihydropyridin-2-one]
5.36 | N#Cc1ccccc1-c1cc(-c2ccc([N+](=O)[O-])cn2)cn(-c2ccccc2)c1=O [Example 299, 3-(2-Cyanophenyl)-5-(5-nitropyridin-2-yl)-1-phenyl-1,2-dihydropyridin-2-one]
5.96 | CCN(CC)CCOc1cccc(-n2cc(-c3ccccn3)cc(-c3ccccc3C#N)c2=O)c1 [Example 246, 3-(2-Cyanophenyl)-1-[3-(diethylaminoethoxy)phenyl]-5-(2-pyridyl)-1,2-dihydropyridin-2-one]
6.00 | O=c1c(-c2cscn2)cc(-c2ccccn2)cn1-c1ccccc1 [Example 267, 1-Phenyl-5-(2-pyridyl)-3-(thiazol-4-yl)-1,2-dihydropyridin-2-one]
6.22 | Nc1cccc(-c2cc(-c3ccccn3)cn(-c3ccccc3)c2=O)c1 [Example 220, 3-(3-Aminophenyl)-1-phenyl-5-(2-pyridyl)-1,2-dihydropyridin-2-one]
5.66 | O=c1c(-c2ccccc2O)cc(-c2ccccn2)cn1-c1ccc(F)cc1 [Example 142, 3-(2-Hydroxyphenyl)-5-(2-pyridyl)-1-(4-fluorophenyl)-1,2-dihydropyridin-2-one]
5.27 | O=c1c(NC23CC4CC(CC(C4)C2)C3)cc(-c2ccccn2)cn1-c1ccccc1 [Example 176, 3-(1-Adamantylamino)-5-(2-pyridyl)-1-phenyl-1,2-dihydropyridin-2-one]
5.92 | O=c1c(-c2ccc(F)nc2)cc(-c2ccccn2)cn1-c1ccccc1 [Example 288, 3-(2-Fluoropyridin-5-yl)-5-(2-pyridyl)-1-phenyl-1,2-dihydropyridin-2-one]

Structure (SMILES) | pIC50
N#Cc1ccccc1-c1cc(-c2ccccn2)cn(-c2ccc3ccccc3c2)c1=O [Example 290, 3-(2-Cyanophenyl)-5-(2-pyridyl)-1-(2-naphthyl)-1,2-dihydropyridin-2-one] | 6.70
CC(=O)c1cccc(-n2cc(-c3ccccn3)cc(-c3ccccc3C#N)c2=O)c1 [Example 277, 1-(3-Acetylphenyl)-3-(2-cyanophenyl)-5-(2-pyridyl)-1,2-dihydropyridin-2-one] | 6.22
N#Cc1ccccc1-c1cc(-c2ccccn2)cn(-c2ccccn2)c1=O [Example 159, 3-(2-Cyanophenyl)-1-(2-pyridyl)-5-(2-pyridyl)-1,2-dihydropyridin-2-one] | 5.80

Same assay, conditions: Table 3; primary culture of rat embryo cerebral cortex nerve cells, 2 μM AMPA, 1 μM MK-801

Structure (SMILES) | pIC50
O=c1c(-c2nc3ccc(Cl)cc3[nH]2)cc(-c2ccccn2)cn1-c1ccccc1 [Example 355, 3-(6-Chloro-1H-benzimidazol-2-yl)-5-(2-pyridyl)-1-phenyl-1,2-dihydropyridin-2-one] | 6.70
Cn1cccc2nc(-c3cc(-c4ccccc4C#N)c(=O)n(-c4ccccc4)c3)nc1-2 [Example 388, 3-(2-Cyanophenyl)-5-(4-methyl-imidazo[4.5-b]pyridin-2-yl)-1-phenyl-1,2-dihydropyridin-2-one] | 5.54
N#Cc1ccccc1-c1cc(-c2ccccn2)cn(CC2CCCC2)c1=O [Example 317, 3-(2-Cyanophenyl)-1-cyclopentylmethyl-5-(2-pyridyl)-1,2-dihydropyridin-2-one] | 6.22
O=c1c(-c2nc3ccccc3s2)cc(-c2ccccn2)cn1-c1ccccc1 [Example 371, 3-(2-Benzothiazolyl)-5-(2-pyridyl)-1-phenyl-1,2-dihydropyridin-2-one] | 6.22
O=c1c(-c2nc3ccccc3n2-c2ccncc2)cc(-c2ccccn2)cn1-c1ccccc1 [Example 356, 3-[1-(Pyridin-4-yl)benzimidazol-2-yl]-5-(2-pyridyl)-1-phenyl-1,2-dihydropyridin-2-one] | 5.68
N#Cc1ccccc1-c1cc(-c2cccc(N3CCOCC3)n2)cn(-c2ccccc2)c1=O [Example 302, 3-(2-Cyanophenyl)-5-(2-morpholinopyridin-6-yl)-1-phenyl-1,2-dihydropyridin-2-one] | 6.52
Cc1ccc2[nH]c(-c3cc(-c4ccccc4C#N)c(=O)n(-c4ccccc4)c3)nc2c1 [Example 351, 3-(2-Cyanophenyl)-5-(5-methyl-1H-benzimidazol-2-yl)-1-phenyl-1,2-dihydropyridin-2-one] | 5.48
